Source: patent US8987192B2, “Potent and selective mediators of cholesterol efflux” (The Regents of the University of California, priority 2006, dated 2015)
Entries after “also recorded” stand apart in the source; their conditions may differ.

What was measured:
LDLr knockout mice = test: Atherosclerosis in LDLr knockout mice; type: in vivo, mouse; conditions: 30 mg/kg IP every day for 6 weeks on chow after 26 weeks western-diet
Procedure: Beginning at 6 weeks of age, LDLr knockout mice were fed a high-fat western-diet for 26 weeks. After the dietary challenge, mice were switched to standard chow for 6 weeks. During the 6 weeks on chow diet, mice were injected IP every day with either the polypeptide of SEQ ID NO:4 or a polypeptide of SEQ ID NO:4:POPC complexes at a dose of 30 mg/kg. Control mice received IP injections with PBS vehicle alone. The presence of plaque lesions in the whole aorta was then evaluated.

[1] = tested on: Apolipoprotein E knock-out mice; test: Atherosclerosis in Apolipoprotein E knock-out mice on Western diet, pooled series (Example 19); type: in vivo, mouse
Procedure: The polypeptide of SEQ ID NO:4 and its Y26 analog have been evaluated with respect to ability to inhibit atherosclerosis in Apolipoprotein E knock-out mice. The mice were given Western diet for 18 weeks and then randomized to receive saline, free polypeptide or polypeptide-phospholipid complex. […] The degree of atherosclerosis was then determined in whole aorta and aortic root/sinus. Three experimental series were performed. […] The results are equal to or better than previously have been obtained with IV infusions of 40 mg/kg Apolipoprotein A-I Milano/phospholipids complex into Apo E knock-out mice (Shah et al., Circ., 97:780-5, 1998).
As noted above, data from three experimental series were pooled. Pooling of data is justified as only minor changes in the procedures were made (21 injections at 30 mg/kg over 42 and 21 days, respectively), and the diet regimens and sources of mice and polypeptide, respectively, were the same. In the first experiment S26 was substituted for Y26.

[2] = tested on: Apolipoprotein E deficient (ApoE −/−) mice; test: In vivo cholesterol efflux and Reverse Cholesterol Transport from injected macrophage foam-cells; parameters: species or system mouse; conditions: 20 mg/kg IP
Procedure: Apolipoprotein E deficient (ApoE −/−) mice at 6 months of age were used to evaluate the ability of the polypeptide of SEQ ID NO:4 to stimulate cholesterol efflux and Reverse Cholesterol Transport (RCT) in vivo. [^3H]cholesterol-labeled macrophage foam-cells (i.e., loaded with acetylated LDL) were injected into the intraperitoneal (IP) cavity of Apo E −/− mice in the presence and absence of the polypeptide of SEQ ID NO:4 (20 mg/kg). The polypeptide stimulated cholesterol efflux in vivo, as judged by a pronounced (2-fold) increase in the levels of macrophage derived [^3H]cholesterol appearing in plasma at 8 and 24 hour post-injection, compared to saline vehicle alone (see, FIG. 20). This was accompanied by a greater than 2-fold increase in fecal sterol secretion at 8 and 24 h. In general, the effects of the peptide were relatively long-lived persisting up to 48 h.

J774 macrophages = test: Pretreatment of macrophages, then Apo A-I-mediated cholesterol efflux; type: cell-based, mouse; conditions: 4 hour pretreatment, vs serum-free medium alone; Apo A-I 10 μg/ml
Procedure: To determine whether conditioning of macrophages with the polypeptide of SEQ ID NO:4 upregulates cholesterol efflux to native apolipoproteins, J774 macrophages labeled with [^3H]cholesterol were induced for the ABCA1 response using a cAMP analog (24 h). This was followed by a 4 hour treatment (no cAMP) with serum-free medium alone or medium containing the polypeptide of SEQ ID NO:4. After 4 h with no cAMP, cholesterol efflux was initiated by adding fresh medium containing Apo A-I (10 μg/ml). Polypeptide of SEQ ID NO:4 pretreatment produced a 40% increase in Apo A-I-mediated cholesterol efflux from macrophages, compared to pretreatment with serum-free medium alone (see, FIG. 6).

[3] = 30 mg/kg IP, 6 weeks of treatment

EVRSKLEEWFAAFREFAEEFLARLKS (ATI-5261 amphipathic alpha-helix polypeptide core sequence selectively binds HDL, high-affinity ligand for ATP-binding cassette transporter A1 (ABCA1), ABCA1-lipid cholesterol efflux, ABCA1-stablization, anti-oxidant and anti- inflammatory activity) [SEQ ID NO:4]
plaque lesions in the whole aorta (LDLr knockout mice): reduced plaque lesion area over the whole aorta; also recorded: the amount of plaque was reduced
lipid-content of aortic sinus plaque [1, 3]: decreased the lipid-content of aortic sinus plaque
plaque lesion area over the whole aorta [1, 3]: reduced plaque lesion area over the whole aorta
antiatherosclerotic effect (whole aorta and aortic root/sinus) ([1]; 30 mg/kg IP, 21 injections, pooled data of three series): significant antiatherosclerotic effects
p versus control, FIG. 19A percent of lipid in plaque in whole aorta ([1]; pooled data): < 0.0040
persistence of effects [2]: up to 48 h
increase in fecal sterol secretion ([2]; 8 and 24 h): greater than 2 fold
increase in macrophage derived [3H]cholesterol in plasma ([2]; 8 and 24 hour post-injection, vs saline): 2 fold
increase in Apo A-I-mediated cholesterol efflux after pretreatment (J774 macrophages): 40%
